From patent US12281121B2, “N-containing heteroaryl derivative and pharmaceutical composition comprising same as active ingredient for prevention or treatment of cancer” (VORONOI Inc., priority 2019, dated 2025)

Assays:
Experiment in all cases: ScanMAX Kinase analysis panel (DiscoverX)
Assay type in all cases: binding
Settings in all cases: read-out: adjusted percentage (% control)
[1] = biological target: T1, JAK2(JH1domain-catalytic) (Homo sapiens, UniProt O60674)
T1 construct: JAK2(JH1domain-catalytic); purchased DiscoverX ScanMAX Kinase analysis panel
Procedure: (§1) The following experiment was performed in order to evaluate the inhibitory activity of the compound according to the present invention against more enzymes. Specifically, for Examples 1 and 3 selected among the Example compounds of the present invention, the enzyme (kinase) selectivity was set to be measured by commissioning DiscoverX, and an experiment was conducted using a ScanMAX™ Kinase analysis panel. In this case, the concentration of the drug treated with the enzyme was set to 1 μM in DMSO, the adjusted percentage (% control) was determined in the same manner as in the following Equation 1, and the results are shown in the following Table 3. (Example compound−Positive control)/(Negative control−Positive control)×100 [Equation 1]
(§2) In addition, the enzyme selectivity of the present invention was determined to be active against the corresponding enzyme when the adjusted percentage was <35% (that is, less than 35%).

TRKC = biological target: T2, TRKC (Homo sapiens, UniProt Q16288)
T2 construct: purchased DiscoverX ScanMAX Kinase analysis panel
Procedure: as §1, §2

[2] = biological target: T3, ABL1(H396P)-phosphorylated (Homo sapiens, UniProt P00519, H396P)
T3 construct: purchased DiscoverX
Procedure: as §1, §2

[3] = biological target: T4, ABL1(T315I)-phosphorylated (Homo sapiens, UniProt P00519, T315I)
T4 construct: purchased DiscoverX
Procedure: as §1, §2

SRC = biological target: T5, SRC (Homo sapiens, UniProt P12931)
T5 construct: purchased DiscoverX ScanMAX Kinase analysis panel
T5 sequence (P12931 whole entry): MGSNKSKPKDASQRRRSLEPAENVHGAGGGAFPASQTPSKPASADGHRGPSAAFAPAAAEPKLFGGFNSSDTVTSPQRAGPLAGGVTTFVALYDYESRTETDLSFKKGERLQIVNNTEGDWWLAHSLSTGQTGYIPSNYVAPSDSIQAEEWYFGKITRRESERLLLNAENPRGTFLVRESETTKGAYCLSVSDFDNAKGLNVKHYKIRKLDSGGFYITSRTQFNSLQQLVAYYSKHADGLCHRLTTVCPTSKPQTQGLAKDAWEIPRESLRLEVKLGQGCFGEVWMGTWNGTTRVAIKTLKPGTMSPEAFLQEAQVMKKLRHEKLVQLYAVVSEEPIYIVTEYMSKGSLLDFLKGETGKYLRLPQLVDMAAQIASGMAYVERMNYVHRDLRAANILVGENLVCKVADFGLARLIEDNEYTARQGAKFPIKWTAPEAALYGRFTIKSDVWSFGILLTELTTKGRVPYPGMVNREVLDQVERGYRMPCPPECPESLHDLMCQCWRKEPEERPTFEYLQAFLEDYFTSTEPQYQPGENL
Procedure: as §1, §2

PLK4 = biological target: T6, PLK4 (Homo sapiens, UniProt O00444)
T6 construct: purchased DiscoverX ScanMAX Kinase analysis panel
T6 sequence (O00444 whole entry): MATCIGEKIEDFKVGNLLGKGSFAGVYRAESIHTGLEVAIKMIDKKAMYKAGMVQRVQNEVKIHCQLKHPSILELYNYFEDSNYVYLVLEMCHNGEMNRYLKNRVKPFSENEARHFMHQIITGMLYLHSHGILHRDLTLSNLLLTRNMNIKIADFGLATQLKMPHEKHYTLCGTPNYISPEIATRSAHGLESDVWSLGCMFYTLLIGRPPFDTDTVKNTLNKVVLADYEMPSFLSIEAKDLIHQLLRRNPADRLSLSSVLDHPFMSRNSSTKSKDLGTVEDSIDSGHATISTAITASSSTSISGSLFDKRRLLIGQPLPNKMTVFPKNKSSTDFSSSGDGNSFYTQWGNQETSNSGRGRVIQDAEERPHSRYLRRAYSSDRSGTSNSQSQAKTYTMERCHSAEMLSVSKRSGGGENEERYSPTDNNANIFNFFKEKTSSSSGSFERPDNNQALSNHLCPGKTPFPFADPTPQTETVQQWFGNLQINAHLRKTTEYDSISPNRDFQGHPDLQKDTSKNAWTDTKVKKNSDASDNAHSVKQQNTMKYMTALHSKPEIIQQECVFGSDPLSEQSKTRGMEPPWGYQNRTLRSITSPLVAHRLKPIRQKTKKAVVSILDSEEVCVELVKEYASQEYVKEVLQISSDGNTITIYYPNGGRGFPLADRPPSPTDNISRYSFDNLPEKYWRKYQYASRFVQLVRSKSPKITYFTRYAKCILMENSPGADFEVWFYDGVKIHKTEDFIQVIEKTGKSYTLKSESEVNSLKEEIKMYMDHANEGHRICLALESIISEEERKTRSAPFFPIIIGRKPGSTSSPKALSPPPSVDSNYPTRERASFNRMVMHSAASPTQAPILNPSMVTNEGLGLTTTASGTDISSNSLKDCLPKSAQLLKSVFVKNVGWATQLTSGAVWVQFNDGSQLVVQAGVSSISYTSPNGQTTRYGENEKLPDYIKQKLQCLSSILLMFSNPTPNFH
Procedure: as §1, §2

[4] = biological target: T7, ABL1(M351T)-phosphorylated (Homo sapiens, UniProt P00519, M351T)
T7 construct: purchased DiscoverX
Procedure: as §1, §2

SYK = biological target: T8, SYK (Homo sapiens, UniProt P43405)
T8 construct: purchased DiscoverX ScanMAX Kinase analysis panel
Procedure: as §1, §2

ICK = biological target: T9, ICK (Homo sapiens, UniProt Q9UPZ9)
T9 construct: purchased DiscoverX ScanMAX Kinase analysis panel
Procedure: as §1, §2

FGR = biological target: T10, FGR (Homo sapiens, UniProt P09769)
T10 construct: purchased DiscoverX ScanMAX Kinase analysis panel
T10 sequence (P09769 whole entry): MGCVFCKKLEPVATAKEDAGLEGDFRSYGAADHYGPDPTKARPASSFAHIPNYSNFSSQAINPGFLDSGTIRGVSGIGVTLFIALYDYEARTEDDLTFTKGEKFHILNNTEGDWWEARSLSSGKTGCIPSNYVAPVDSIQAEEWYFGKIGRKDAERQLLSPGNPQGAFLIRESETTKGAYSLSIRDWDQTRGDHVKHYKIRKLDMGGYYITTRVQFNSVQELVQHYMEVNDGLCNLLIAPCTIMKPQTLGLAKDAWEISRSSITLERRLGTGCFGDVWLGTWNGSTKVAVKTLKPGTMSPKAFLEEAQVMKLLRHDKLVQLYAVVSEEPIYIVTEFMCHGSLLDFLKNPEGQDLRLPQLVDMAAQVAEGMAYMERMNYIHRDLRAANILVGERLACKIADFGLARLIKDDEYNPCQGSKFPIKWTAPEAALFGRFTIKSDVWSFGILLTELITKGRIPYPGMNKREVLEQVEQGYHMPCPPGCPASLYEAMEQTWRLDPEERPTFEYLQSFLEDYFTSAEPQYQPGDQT
Procedure: as §1, §2

FGFR1 = biological target: T11, FGFR1 (Homo sapiens, UniProt P11362)
T11 construct: purchased DiscoverX ScanMAX Kinase analysis panel
Procedure: as §1, §2

FLT3(D835V) = biological target: T12, FLT3(D835V) (Homo sapiens, UniProt P36888, D835V)
T12 construct: purchased DiscoverX ScanMAX Kinase analysis panel
Procedure: as §1, §2

EGFR(L858R, T790M) = biological target: T13, EGFR(L858R, T790M) (Homo sapiens, UniProt P00533, L858R/T790M)
T13 construct: purchased DiscoverX
Procedure: as §1, §2

FLT3 = biological target: T14, FLT3 (Homo sapiens, UniProt P36888)
T14 construct: purchased DiscoverX ScanMAX Kinase analysis panel
Procedure: as §1, §2

CSNK2A2 = biological target: T15, CSNK2A2 (Homo sapiens, UniProt P19784)
T15 construct: purchased DiscoverX
T15 sequence (P19784 whole entry): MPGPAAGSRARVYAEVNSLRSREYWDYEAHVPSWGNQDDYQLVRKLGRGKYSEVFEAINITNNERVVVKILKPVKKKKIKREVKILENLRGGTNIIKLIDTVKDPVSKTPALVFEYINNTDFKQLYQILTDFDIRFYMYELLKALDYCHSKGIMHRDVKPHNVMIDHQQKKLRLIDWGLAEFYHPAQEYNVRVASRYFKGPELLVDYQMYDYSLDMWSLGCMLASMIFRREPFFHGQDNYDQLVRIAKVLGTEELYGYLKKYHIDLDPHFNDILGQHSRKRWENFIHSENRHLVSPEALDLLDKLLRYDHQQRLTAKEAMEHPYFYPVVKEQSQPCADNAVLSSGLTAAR
Procedure: as §1, §2

FLT3-autoinhibited = biological target: T16, FLT3-autoinhibited (Homo sapiens, UniProt P36888)
T16 construct: purchased DiscoverX ScanMAX Kinase analysis panel
Procedure: as §1, §2

EGFR(T790M) = biological target: T17, EGFR(T790M) (Homo sapiens, UniProt P00533, T790M)
T17 construct: purchased DiscoverX ScanMAX Kinase analysis panel
T17 sequence (P00533 25-1210 T790M): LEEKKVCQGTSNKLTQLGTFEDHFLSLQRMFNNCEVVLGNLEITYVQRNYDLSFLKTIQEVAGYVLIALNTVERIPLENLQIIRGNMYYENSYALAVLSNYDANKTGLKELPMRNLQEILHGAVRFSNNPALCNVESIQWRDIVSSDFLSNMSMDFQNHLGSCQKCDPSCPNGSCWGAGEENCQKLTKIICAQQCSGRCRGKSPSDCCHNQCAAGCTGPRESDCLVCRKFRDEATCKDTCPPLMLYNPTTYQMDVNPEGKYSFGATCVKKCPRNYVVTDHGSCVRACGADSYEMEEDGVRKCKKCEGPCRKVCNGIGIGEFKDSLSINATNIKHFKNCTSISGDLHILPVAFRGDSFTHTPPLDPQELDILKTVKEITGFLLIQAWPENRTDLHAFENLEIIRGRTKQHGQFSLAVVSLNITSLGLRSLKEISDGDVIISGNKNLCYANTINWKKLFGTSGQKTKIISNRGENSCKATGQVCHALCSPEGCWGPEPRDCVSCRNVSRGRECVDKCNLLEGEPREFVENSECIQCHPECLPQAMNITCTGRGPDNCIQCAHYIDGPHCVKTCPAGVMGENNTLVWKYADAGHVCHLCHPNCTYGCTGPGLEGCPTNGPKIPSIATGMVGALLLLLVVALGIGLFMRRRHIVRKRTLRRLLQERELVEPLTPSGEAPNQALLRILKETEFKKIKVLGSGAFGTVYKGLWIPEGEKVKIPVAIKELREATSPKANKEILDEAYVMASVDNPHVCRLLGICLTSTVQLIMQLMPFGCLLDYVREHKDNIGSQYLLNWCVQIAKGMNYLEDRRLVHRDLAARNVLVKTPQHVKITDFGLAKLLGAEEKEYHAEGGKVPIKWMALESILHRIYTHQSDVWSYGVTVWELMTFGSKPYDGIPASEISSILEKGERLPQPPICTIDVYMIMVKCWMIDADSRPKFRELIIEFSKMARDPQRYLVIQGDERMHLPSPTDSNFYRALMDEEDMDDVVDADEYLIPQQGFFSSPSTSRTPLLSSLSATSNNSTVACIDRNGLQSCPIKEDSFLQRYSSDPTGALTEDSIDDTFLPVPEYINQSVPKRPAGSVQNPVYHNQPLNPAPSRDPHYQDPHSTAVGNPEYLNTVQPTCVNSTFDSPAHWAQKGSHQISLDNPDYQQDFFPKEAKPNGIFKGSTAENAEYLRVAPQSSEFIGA
Procedure: as §1, §2

RIOK3 = biological target: T18, RIOK3 (Homo sapiens, UniProt O14730)
T18 construct: purchased DiscoverX ScanMAX Kinase analysis panel
T18 sequence (O14730 whole entry): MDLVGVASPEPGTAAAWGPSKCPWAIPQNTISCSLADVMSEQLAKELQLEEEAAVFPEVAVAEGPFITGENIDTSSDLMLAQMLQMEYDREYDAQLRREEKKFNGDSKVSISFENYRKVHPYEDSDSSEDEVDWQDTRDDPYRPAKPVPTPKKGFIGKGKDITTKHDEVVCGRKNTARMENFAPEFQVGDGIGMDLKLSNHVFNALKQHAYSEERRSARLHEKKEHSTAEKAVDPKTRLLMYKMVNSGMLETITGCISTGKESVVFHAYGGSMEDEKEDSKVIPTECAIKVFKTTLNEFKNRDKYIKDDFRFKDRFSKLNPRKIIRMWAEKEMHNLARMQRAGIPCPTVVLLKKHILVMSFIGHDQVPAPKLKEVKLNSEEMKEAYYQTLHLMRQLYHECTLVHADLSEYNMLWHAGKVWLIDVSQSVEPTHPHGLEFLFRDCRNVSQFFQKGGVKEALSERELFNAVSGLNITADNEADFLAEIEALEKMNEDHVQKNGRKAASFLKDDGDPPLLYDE
Procedure: as §1, §2

RET(V804M) = biological target: T19, RET(V804M) (Homo sapiens, UniProt P07949, V804M)
T19 construct: purchased DiscoverX ScanMAX Kinase analysis panel
Procedure: as §1, §2

FLT3(N841I) = biological target: T20, FLT3(N841I) (Homo sapiens, UniProt P36888, N841I)
T20 construct: purchased DiscoverX ScanMAX Kinase analysis panel
Procedure: as §1, §2

RET(M918T) = biological target: T21, RET(M918T) (Homo sapiens, UniProt P07949, M918T)
T21 construct: purchased DiscoverX ScanMAX Kinase analysis panel
Procedure: as §1, §2

[5] = biological target: T22, JAK3(JH1domain-catalytic) (Homo sapiens, UniProt P52333)
T22 construct: JAK3 (JH1domain-catalytic); purchased DiscoverX ScanMAX Kinase analysis panel
Procedure: as §1, §2

FRK = biological target: T23, FRK (Homo sapiens, UniProt P42685)
T23 construct: purchased DiscoverX ScanMAX Kinase analysis panel
Procedure: as §1, §2

[6] = biological target: T24, ABL1(Y253F)-phosphorylated (Homo sapiens, UniProt P00519, Y253F)
T24 construct: purchased DiscoverX
Procedure: as §1, §2

KIT(V559D) = biological target: T25, KIT(V559D) (Homo sapiens, UniProt P10721, V559D)
T25 construct: purchased DiscoverX ScanMAX Kinase analysis panel
T25 sequence (P10721 26-976 V559D): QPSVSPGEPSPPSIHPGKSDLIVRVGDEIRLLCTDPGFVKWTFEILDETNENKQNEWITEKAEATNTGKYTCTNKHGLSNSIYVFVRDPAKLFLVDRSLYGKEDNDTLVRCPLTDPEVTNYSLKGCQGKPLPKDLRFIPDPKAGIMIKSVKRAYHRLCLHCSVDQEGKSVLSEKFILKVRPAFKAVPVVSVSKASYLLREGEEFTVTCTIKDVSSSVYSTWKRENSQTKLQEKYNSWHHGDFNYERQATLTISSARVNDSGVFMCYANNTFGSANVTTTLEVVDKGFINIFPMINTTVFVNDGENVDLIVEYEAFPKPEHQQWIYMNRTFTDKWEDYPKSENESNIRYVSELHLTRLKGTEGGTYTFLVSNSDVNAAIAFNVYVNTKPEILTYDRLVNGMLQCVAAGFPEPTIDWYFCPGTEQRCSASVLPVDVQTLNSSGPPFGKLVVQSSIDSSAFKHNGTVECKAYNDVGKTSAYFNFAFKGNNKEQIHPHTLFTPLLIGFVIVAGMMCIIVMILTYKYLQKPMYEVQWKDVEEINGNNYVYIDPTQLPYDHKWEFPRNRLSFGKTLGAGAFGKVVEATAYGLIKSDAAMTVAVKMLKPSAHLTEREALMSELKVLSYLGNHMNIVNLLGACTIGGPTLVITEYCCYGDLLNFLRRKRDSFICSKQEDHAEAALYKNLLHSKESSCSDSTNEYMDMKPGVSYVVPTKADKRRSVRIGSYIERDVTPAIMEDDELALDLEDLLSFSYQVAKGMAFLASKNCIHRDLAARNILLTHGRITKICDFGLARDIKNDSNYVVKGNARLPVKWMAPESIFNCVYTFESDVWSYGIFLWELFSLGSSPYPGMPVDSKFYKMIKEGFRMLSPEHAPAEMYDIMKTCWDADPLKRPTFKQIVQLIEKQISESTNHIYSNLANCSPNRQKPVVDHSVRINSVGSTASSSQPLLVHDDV
Procedure: as §1, §2

[7] = biological target: T26, ABL1(H396P)-nonphosphorylated (Homo sapiens, UniProt P00519, H396P)
T26 construct: purchased DiscoverX
Procedure: as §1, §2

MEK3 = biological target: T27, MEK3 (Homo sapiens, UniProt P46734)
T27 construct: purchased DiscoverX ScanMAX Kinase analysis panel
Procedure: as §1, §2

[8] = biological target: T28, EGFR(L747-E749del, A750P) (Homo sapiens, UniProt P00533, A750P/DEL747-749)
T28 construct: purchased DiscoverX
Procedure: as §1, §2

RET(V804L) = biological target: T29, RET(V804L) (Homo sapiens, UniProt P07949, V804L)
T29 construct: purchased DiscoverX ScanMAX Kinase analysis panel
Procedure: as §1, §2

DDR2 = biological target: T30, DDR2 (Homo sapiens, UniProt Q16832)
T30 construct: purchased DiscoverX
Procedure: as §1, §2

RET = biological target: T31, RET (Homo sapiens, UniProt P07949)
T31 construct: purchased DiscoverX ScanMAX Kinase analysis panel
Procedure: as §1, §2

BLK = biological target: T32, BLK (Homo sapiens, UniProt P51451)
T32 construct: purchased DiscoverX
Procedure: as §1, §2

KIT(D816V) = biological target: T33, KIT(D816V) (Homo sapiens, UniProt P10721, D816V)
T33 construct: purchased DiscoverX ScanMAX Kinase analysis panel
Procedure: as §1, §2

TRKB = biological target: T34, TRKB (Homo sapiens, UniProt Q16620)
T34 construct: purchased DiscoverX ScanMAX Kinase analysis panel
Procedure: as §1, §2

LCK = biological target: T35, LCK (Homo sapiens, UniProt P06239)
T35 construct: purchased DiscoverX ScanMAX Kinase analysis panel
Procedure: as §1, §2

Row | Structure (SMILES) | remaining binding at 1 µM [1] [%] | remaining binding at 1 µM (TRKC) [%] | remaining binding at 1 µM [2] [%] | remaining binding at 1 µM [3] [%] | remaining binding at 1 µM (SRC) [%] | remaining binding at 1 µM (PLK4) [%] | remaining binding at 1 µM [4] [%] | remaining binding at 1 µM (SYK) [%] | remaining binding at 1 µM (ICK) [%] | remaining binding at 1 µM (FGR) [%] | remaining binding at 1 µM (FGFR1) [%] | remaining binding at 1 µM (FLT3(D835V)) [%] | remaining binding at 1 µM (EGFR(L858R, T790M)) [%] | remaining binding at 1 µM (FLT3) [%] | remaining binding at 1 µM (CSNK2A2) [%] | remaining binding at 1 µM (FLT3-autoinhibited) [%] | remaining binding at 1 µM (EGFR(T790M)) [%] | remaining binding at 1 µM (RIOK3) [%] | remaining binding at 1 µM (RET(V804M)) [%] | remaining binding at 1 µM (FLT3(N841I)) [%] | further results
1 | COc1ccc(CN2C3CC2CN(c2ccc(-c4nc(Nc5cc(C)[nH]n5)c5occc5n4)cn2)C3)cn1 [Example 1, 2-(6-(6-((6-methoxypyridin-3-yl)methyl)-3,6-diazabicyclo[3.1.1]heptan-3-yl)pyridin-3-yl)-N-(5-methyl-1H-pyrazol-3-yl)furo[3,2-d]pyrimidin-4-amine] | 0.1 | 0.45 | 28 | 19 | 0.7 | 1.3 | 16 | 3.1 | 33 | 12 | 11 | 1.3 | 6.9 | 1.2 | 0 | 9.8 | 8.1 | 13 | 0 | 0 | remaining binding at 1 µM (RET(M918T)): 0.9%; remaining binding at 1 µM [5]: 0.55%; remaining binding at 1 µM (FRK): 18%; remaining binding at 1 µM [6]: 20%; remaining binding at 1 µM (KIT(V559D)): 34%; remaining binding at 1 µM [7]: 10%; remaining binding at 1 µM (MEK3): 27%; remaining binding at 1 µM [8]: 16%; remaining binding at 1 µM (RET(V804L)): 1.1%; remaining binding at 1 µM (DDR2): 16%; remaining binding at 1 µM (RET): 0%; remaining binding at 1 µM (BLK): 1.4%; remaining binding at 1 µM (KIT(D816V)): 32%; remaining binding at 1 µM (TRKB): 1.6%; remaining binding at 1 µM (LCK): 2.5%
2 | COc1ccc(CN2C3CC2CN(c2ccc(-c4nc(Nc5cc(C)[nH]n5)c5ccccc5n4)cn2)C3)cn1 [Example 3, 2-(6-(6-((6-methoxypyridin-3-yl)methyl)-3,6-diazabicyclo [3.1.1]heptan-3-yl)pyridin-3-yl)-N-(5-methyl-1H-pyrazol-3-yl)quinazolin-4-amine] | 0 | 1 | 21 | 3.2 | 0 | 1.2 | 15 | 2.2 | 28 | 8.4 | 4.3 | 0 | 6.6 | 0.55 | 0.3 | 11 | 16 | 30 | 0 | 0 | remaining binding at 1 µM (RET(M918T)): 0.25%; remaining binding at 1 µM [5]: 1.9%; remaining binding at 1 µM (FRK): 34%; remaining binding at 1 µM [6]: 21%; remaining binding at 1 µM (KIT(V559D)): 4.2%; remaining binding at 1 µM [7]: 2.5%; remaining binding at 1 µM (MEK3): 4.9%; remaining binding at 1 µM [8]: 17%; remaining binding at 1 µM (RET(V804L)): 0.4%; remaining binding at 1 µM (DDR2): 30%; remaining binding at 1 µM (RET): 0%; remaining binding at 1 µM (BLK): 0.05%; remaining binding at 1 µM (KIT(D816V)): 6.5%; remaining binding at 1 µM (TRKB): 2.1%; remaining binding at 1 µM (LCK): 1.8%
